Measurements reported in US10000380B2, “Method for the manufacture of polymeric sulfur” (EASTMAN CHEMICAL COMPANY, priority 2016, dated 2018).

Assay: Solubility of cyclooctasulfur, cyclododecasulfur and crystalline polymeric sulfur in carbon disulfide, chlorobenzene and para-xylene (supernatant sulfur content by Uniquant)
Format: physicochemical
Procedure: Samples were also analyzed using X-ray fluorescence and the UniQuant software package. UniQuant (UQ) is an x-ray fluorescence (XRF) analysis tool that affords standardless XRF analysis of samples. Samples can then be semi-quantitatively analyzed for up to 72 elements beginning with row three in the periodic table (i.e. Na to higher Z). The data are mathematically corrected for matrix differences between calibration standards and samples as well as absorption and enhancement effects; i.e. inter-element effects. Some factors that can affect the quality of results include granularity in the sample (leading to shadow effects), mineralogical effects (due to sample inhomogeneity), insufficient sample size, and lack of knowledge of the sample matrix. In cases where a sample was amenable to both, the XRF UQ analysis and the ICP-OES (i.e. quantitative) analysis generally agree within +/−10%. Samples were analyzed for Zn, Br, Cl, and S content by UQ.
Fifty grams of p-xylene was added to each of three identical 100-milliliter jacketed glass vessels fitted with a circulating heating bath, cooling water condenser, magnetic stir bar and stir plate, and nitrogen purge. All vessels were heated to the desired temperature, and cyclooctasulfur, cyclododecasulfur (prepared as in Example 2), and unoiled commercial crystalline polymeric sulfur (Crystex™) was added in sufficient quantities to each of the glass vessels to allow undissolved solids to remain after dissolution and equilibration of the mixture. The equilibration period typically lasted 2 to 8 hours, during which the contents of the vessel were maintained at the desired temperature and stirred continuously. Upon equilibration, supernatant liquid was withdrawn from the vessels via a heated fritted glass pipette (heated to the same temperature as the solution). The supernatants were analyzed by Uniquant to determine sulfur content, indicating the solubility of the sulfur species at the vessel temperature. Similar experiments were conducted for carbon disulfide and chlorobenzene for each of the three solutes.

| Structure (SMILES) | Solubility relative to polymeric sulfur (in p-xylene, chlorobenzene and CS2) | Solubility in weight % of solute in solvent (solvent CS2, 22 °C) | Solubility in weight % of solute in solvent (solvent CS2, 45 °C) | Solubility in weight % of solute in solvent (solvent chlorobenzene, 45 °C) | Solubility in weight % of solute in solvent (solvent chlorobenzene, 115 °C) | Solubility in weight % of solute in solvent (solvent p-xylene, 45 °C) | Solubility in weight % of solute in solvent (solvent p-xylene, 115 °C) | Solubility relative to cyclododecasulfur (in p-xylene, chlorobenzene and CS2, depending on temperature) | Solubility in weight % of solute in solvent (solvent chlorobenzene, 22 °C) | Solubility in weight % of solute in solvent (solvent p-xylene, 22 °C) |
| --- | --- | --- | --- | --- | --- | --- | --- | --- | --- | --- |
| S1SSSSSSSSSSS1 [Cyclododecasulfur, cyclododecasulfur] | at least an order of magnitude more soluble | 0.2 wt % | 0.5 wt % | 0.015 wt % | 0.44 wt % | <0.05 wt % | 0.4 wt % | – | – | – |
| S1SSSSSSS1 [Cyclooctasulfur, cyclooctasulfur] | – | 32 wt % | 48 wt % | 6.2 wt % | 21.7 wt % | 5.6 wt % | 18.7 wt % | 30 to 200 times | 2.4 wt % | 2.3 wt % |
